IC50 data for one compound are collected here from paper PMC5374441 (Scientific Reports, 2017).

In the assay the target is T1, Q55K Ls-AChBP mutant (Lymnaea stagnalis, UniProt P58154, Q74K).
T1 construct: made in house; Top10 E. coli is named only for plasmid propagation
Kind of assay: biochemical. As to conditions: SEM. The format is binding.

Bridge positions count the residues as written; N and C are the ends. Peptide text beside a SMILES is read from it.

The term IC50 denotes the concentration at which inhibition is half-maximal. `CC[C@H](C)[C@@H]1NC(=O)[C@H](CC(N)=O)NC(=O)[C@@H]2CCCN2C(=O)[C@H](CC(N)=O)NC(=O)[C@H](CC(N)=O)NC(=O)[C@H](C(C)C)NC(=O)[C@H](CCCNC(=N)N)NC(=O)[C@@H]2CSSC[C@H](NC(=O)CNC(=O)[C@@H](N)CO)C(=O)N[C@@H](CSSC[C@@H](C(N)=O)NC1=O)C(=O)N[C@@H](CO)C(=O)N[C@@H](CC(N)=O)C(=O)N1CCC[C@H]1C(=O)N[C@@H](C)C(=O)N2` [LsIA] (H-SGCCSNPACRVNNPNIC-NH2; disulfide 3-9, 4-17) returned an IC50 of 17.4 ± 10.7 µM.
